Laboratory results: patent US20080193619A1, “Use of Fullerence C60 as an Oil Stabilizer” (UNI PHARMA HOLDING AS, priority 2005, published 2008)

Tests used:
[1] = Storage (shelf life) test of salmon oil stabilized with antioxidant, degree of oxidation in fatty acids; parameters: degree of oxidation in fatty acids: unit not given here; details: for degree of oxidation in fatty acids: fullerene C60 0.001%, rosemary 0.1%
Protocol: FIG. 2. Shelf life tests for salmon oil stabilized with fullerene or rosemary. The results are given as the change in the oxidation level of fatty acids in the oil. The antioxidants rosemary and fullerene were present at 0.1% and 0.001% by weight, respectively.
Research on storage of salmon oil was carried out at temperatures of 25° C. and 5° C. during the time period from Jun. 11, 2003 to Nov. 10, 2004 (17 months). The quality of the rosemary and fullerene C60 as antioxidants in salmon oil was studied in parallel during the entire duration of the experiment.
The concentration of the two chosen antioxidants used in the experiment were obtained by an addition of 0.1% rosemary (the same concentration used in the products UNIC Omega-3 and AniMega) and 0.001% fullerene C60.
Standard methods of defining the degree of oxidation in fatty acids were used during selected time periods during the storage test. FIG. 2. presents data from a storage temperature of 5° C.

[2] = Organoleptic testing (taste and smell) of stabilized salmon oil; details: salmon oil with the additive, organoleptic test
Protocol: With basis in salmon oil as a nutritional supplement, organoleptic characteristics (determination of the quality of the oil by taste and smell) are also of importance. Standardized methods for organoleptic testing were utilized: one drop of salmon oil was placed on the arm and applied in a thin layer by means of a piece of glass. After one minute the quality of the oil could be determined by taste and smell. Five different individuals were tested, once per week, to obtain independent results. […] Both smell and taste was satisfactory at this point in time, and better for fullerene, witch kept well for 600 days, than for rosemary, witch only kept for 300 days.

[3] = In vitro experiments: cytotoxicity and hepatotoxicity; format: cell-based; details: concentrations up to 100 mM in water
[4] = tested on: cellular membranes; test: In vitro experiments: cellular respiration and cellular membranes; format: cell-based
[5] = In vitro experiments: antioxidant activity
[6] = In vitro experiments: blood fibrillation
[7] = In vivo experiments: toxicity, immunogenicity, allergenicity; details: dosages up to 25 mg/kg (0.0025% by weight) in aqueous solution
[8] = concentrations up to 100 mM in water

Structure (SMILES): c12c3c4c5c1c1c6c7c2c2c8c3c3c9c4c4c%10c5c5c1c1c6c6c%11c7c2c2c7c8c3c3c8c9c4c4c9c%10c5c5c1c1c6c6c%11c2c2c7c3c3c8c4c4c9c5c1c1c6c2c3c41 [fullerene C60]
- keeping time of stabilized fish oil ([1]; fish oil stabilized with the antioxidant): 600 days
- degree of oxidation in fatty acids ([1]; salmon oil, 5 C., day 0 (11.06)): 0.00036
- degree of oxidation in fatty acids ([1]; salmon oil, 5 C., day 14 (25.06)): 0.00083
- degree of oxidation in fatty acids ([1]; salmon oil, 5 C., day 81 (8.09)): 0.0010
- degree of oxidation in fatty acids ([1]; salmon oil, 5 C., day 95 (22.09)): 0.00095
- degree of oxidation in fatty acids ([1]; salmon oil, 5 C., day 109 (6.10)): 0.0014
- degree of oxidation in fatty acids ([1]; salmon oil, 5 C., day 123 (20.10)): 0.0012
- degree of oxidation in fatty acids ([1]; salmon oil, 5 C., day 185 (21.12)): 0.0023
- degree of oxidation in fatty acids ([1]; salmon oil, 5 C., day 200 (05.01)): 0.0027
- degree of oxidation in fatty acids ([1]; salmon oil, 5 C., day 214 (19.01)): 0.0028
- degree of oxidation in fatty acids ([1]; salmon oil, 5 C., day 228 (02.02)): 0.0028
- degree of oxidation in fatty acids ([1]; salmon oil, 5 C., day 242 (16.02)): 0.0030
- degree of oxidation in fatty acids ([1]; salmon oil, 5 C., day 256 (2.03)): 0.0030
- degree of oxidation in fatty acids ([1]; salmon oil, 5 C., day 270 (16.03)): 0.0031
- degree of oxidation in fatty acids ([1]; salmon oil, 5 C., day 284 (30.03)): 0.0033
- degree of oxidation in fatty acids ([1]; salmon oil, 5 C., day 298 (13.04)): 0.0037
- degree of oxidation in fatty acids ([1]; salmon oil, 5 C., day 312 (27.04)): 0.0039
- degree of oxidation in fatty acids ([1]; salmon oil, 5 C., day 326 (11.05)): 0.0040
- degree of oxidation in fatty acids ([1]; salmon oil, 5 C., day 340 (25.05)): 0.0043
- degree of oxidation in fatty acids ([1]; salmon oil, 5 C., day 354 (8.06)): 0.0046
- degree of oxidation in fatty acids ([1]; salmon oil, 5 C., day 368 (22.06)): 0.0048
- degree of oxidation in fatty acids ([1]; salmon oil, 5 C., day 372 (06.07)): 0.0050
- degree of oxidation in fatty acids ([1]; salmon oil, 5 C., day 386 (20.07)): 0.0052
- degree of oxidation in fatty acids ([1]; salmon oil, 5 C., day 414 (15.08)): 0.0054
- degree of oxidation in fatty acids ([1]; salmon oil, 5 C., day 428 (29.08)): 0.0055
- degree of oxidation in fatty acids ([1]; salmon oil, 5 C., day 442 (12.09)): 0.0058
- degree of oxidation in fatty acids ([1]; salmon oil, 5 C., day 456 (26.09)): 0.0061
- degree of oxidation in fatty acids ([1]; salmon oil, 5 C., day 470 (10.10)): 0.0065
- degree of oxidation in fatty acids ([1]; salmon oil, 5 C., day 484 (24.10)): 0.0066
- degree of oxidation in fatty acids ([1]; salmon oil, 25 C., day 0 (11.06)): 0.00036
- degree of oxidation in fatty acids ([1]; salmon oil, 25 C., day 14 (25.06)): 0.00076
- degree of oxidation in fatty acids ([1]; salmon oil, 25 C., day 81 (8.09)): 0.0020
- degree of oxidation in fatty acids ([1]; salmon oil, 25 C., day 95 (22.09)): 0.0031
- degree of oxidation in fatty acids ([1]; salmon oil, 25 C., day 109 (6.10)): 0.0090
- degree of oxidation in fatty acids ([1]; salmon oil, 25 C., day 123 (20.10)): 0.0015
- degree of oxidation in fatty acids ([1]; salmon oil, 25 C., day 185 (21.12)): 0.012
- degree of oxidation in fatty acids ([1]; salmon oil, 25 C., day 200 (05.01)): 0.015
- degree of oxidation in fatty acids ([1]; salmon oil, 25 C., day 214 (19.01)): 0.022
- degree of oxidation in fatty acids ([1]; salmon oil, 25 C., day 228 (02.02)): 0.034
- degree of oxidation in fatty acids ([1]; salmon oil, 25 C., day 242 (16.02)): 0.037
- degree of oxidation in fatty acids ([1]; salmon oil, 25 C., day 256 (2.03)): 0.038
- degree of oxidation in fatty acids ([1]; salmon oil, 25 C., day 270 (16.03)): 0.040
- degree of oxidation in fatty acids ([1]; salmon oil, 25 C., day 284 (30.03)): 0.041
- degree of oxidation in fatty acids ([1]; salmon oil, 25 C., day 298 (13.04)): 0.044
- degree of oxidation in fatty acids ([1]; salmon oil, 25 C., day 312 (27.04)): 0.047
- degree of oxidation in fatty acids ([1]; salmon oil, 25 C., day 326 (11.05)): 0.049
- degree of oxidation in fatty acids ([1]; salmon oil, 25 C., day 340 (25.05)): 0.054
- degree of oxidation in fatty acids ([1]; salmon oil, 25 C., day 354 (8.06)): 0.059
- degree of oxidation in fatty acids ([1]; salmon oil, 25 C., day 368 (22.06)): 0.063
- degree of oxidation in fatty acids ([1]; salmon oil, 25 C., day 372 (06.07)): 0.066
- degree of oxidation in fatty acids ([1]; salmon oil, 25 C., day 386 (20.07)): 0.068
- degree of oxidation in fatty acids ([1]; salmon oil, 25 C., day 414 (15.08)): 0.070
- degree of oxidation in fatty acids ([1]; salmon oil, 25 C., day 428 (29.08)): 0.072
- degree of oxidation in fatty acids ([1]; salmon oil, 25 C., day 442 (12.09)): 0.080
- degree of oxidation in fatty acids ([1]; salmon oil, 25 C., day 456 (26.09)): 0.085
- degree of oxidation in fatty acids ([1]; salmon oil, 25 C., day 470 (10.10)): 0.088
- degree of oxidation in fatty acids ([1]; salmon oil, 25 C., day 484 (24.10)): 0.089
- effectiveness as additive (antioxidant) compared with rosemary ([1]; salmon oil, temperature of 5 C): more effective additive than rosemary
- time the oil kept (smell and taste) [2]: 600 days
- cytotoxicity [3]: not cytotoxic
- hepatotoxicity [3]: not cytotoxic or hepatoxic
- inhibition of cellular respiration [4, 8]: does not inhibit cellular respiration
- inhibition of membrane catalytic activity [4, 8]: does not inhibit cellular respiration or inhibition of membrane catalytic activity
- stabilization of cellular membranes ([4]; stability during unfavourable conditions): stabilizes cellular membranes
- antioxidant activity compared with ionol, vitamin E and beta-carotene [5]: greater than ionol, vitamin E, and beta-carotene
- effect on blood fibrillation [6]: no bearing on blood fibrillation
- allergenicity in vivo [7]: not toxic, immunogenic, or an allergen
- immunogenicity in vivo [7]: not toxic, immunogenic
- toxicity in vivo [7]: not toxic
